Test results published in patent publication EP2067787A1, “Method for controlling insect populations” (Boehringer Ingelheim International GmbH, priority 2007, dated 2009).
Bridge positions count the residues as written; N and C are the ends. Square brackets hold non-standard residues; d marks the D form. Ends that are not written are not given here. Peptide text beside a SMILES is read from it. pGlu = O=C1CC[C@@H](C(=O)O)N1

Experiments:
[1] = Saudan et al., 2002; cited from earlier work
D. pseudoobscura SPR = test: CHO cell aequorin luminescence assay, insect SPR orthologue; format: cell-based; conditions: CHO cells expressing SPR, aequorin and Gαqi
B. mori SPR = test: as above; format: cell-based, Bombyx mori; conditions: CHO cells expressing SPR, aequorin and Gαqi
A. aegypti SPR = test: as above; format: cell-based, Aedes aegypti; conditions: CHO cells expressing SPR, aequorin and Gαqi
Helicoverpa armigera = conditions: Fan et al., 1999 and 2000; cited from earlier work
CG16752 = molecular target: T1, CG16752 (Drosophila melanogaster, UniProt Q8SWR3); test: CHO cell aequorin luminescence (Ca2+) assay; format: cell-based; conditions: for Ca^2+ responses: 0.1µM or 10µM SP
T1 construct: The relevant GPCRs are expressed from constructs prepared by cloning the entire open reading frame in a pcDNA3.1(+) vector; expressed in transfected cells; host or cells: CHO-K1
T1 sequence (Q8SWR3 1-435): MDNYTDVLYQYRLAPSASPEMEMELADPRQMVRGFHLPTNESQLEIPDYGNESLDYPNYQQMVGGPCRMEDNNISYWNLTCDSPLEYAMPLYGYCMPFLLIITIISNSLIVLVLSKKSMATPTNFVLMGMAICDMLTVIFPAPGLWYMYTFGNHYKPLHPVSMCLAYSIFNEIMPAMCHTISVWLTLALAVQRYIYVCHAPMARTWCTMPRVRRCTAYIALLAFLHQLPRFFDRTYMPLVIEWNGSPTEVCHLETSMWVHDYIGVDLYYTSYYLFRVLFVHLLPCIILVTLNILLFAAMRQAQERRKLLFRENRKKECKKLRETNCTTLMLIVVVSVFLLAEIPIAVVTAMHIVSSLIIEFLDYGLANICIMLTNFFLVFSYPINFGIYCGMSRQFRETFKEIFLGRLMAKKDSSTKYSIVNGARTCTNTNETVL

CG2114 = molecular target: T2, CG2114 (Drosophila melanogaster, UniProt Q9VZW5); test: CHO cell aequorin luminescence assay, related GPCR; format: cell-based; conditions: 10µM peptide; CHO cells expressing CG2114 and aequorin
T2 construct: The relevant GPCRs are expressed from constructs prepared by cloning the entire open reading frame in a pcDNA3.1(+) vector; expressed in transfected cells; host or cells: CHO-K1
T2 sequence (Q9VZW5 1-549): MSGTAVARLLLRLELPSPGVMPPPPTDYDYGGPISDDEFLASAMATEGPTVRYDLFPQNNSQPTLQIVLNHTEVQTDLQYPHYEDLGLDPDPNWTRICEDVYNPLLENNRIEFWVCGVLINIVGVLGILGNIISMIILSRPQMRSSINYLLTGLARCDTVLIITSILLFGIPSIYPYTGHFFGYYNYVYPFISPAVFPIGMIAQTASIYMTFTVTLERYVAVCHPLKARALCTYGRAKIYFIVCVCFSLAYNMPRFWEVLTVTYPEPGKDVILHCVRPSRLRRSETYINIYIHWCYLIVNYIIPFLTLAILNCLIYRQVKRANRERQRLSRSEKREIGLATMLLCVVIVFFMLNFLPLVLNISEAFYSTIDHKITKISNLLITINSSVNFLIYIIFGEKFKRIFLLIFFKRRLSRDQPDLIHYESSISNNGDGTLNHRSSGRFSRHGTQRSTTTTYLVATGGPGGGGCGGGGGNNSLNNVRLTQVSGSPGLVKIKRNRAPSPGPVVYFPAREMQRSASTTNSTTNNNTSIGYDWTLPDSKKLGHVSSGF

CG8784 = test: CHO cell aequorin luminescence assay, related GPCR; format: cell-based, Drosophila; conditions: 10µM peptide; CHO cells expressing CG8784 and aequorin
virgin females = test: Receptivity of virgin females after SP injection; format: in vivo, Drosophila; conditions: assayed 5 h after injection
[2] = molecular target: T3, Drosophila melanogaster sex peptide receptor (SPR), GPCR encoded by CG16752 (Drosophila melanogaster, UniProt Q8SWR3 1-435); test: cell-based or functional assay
T3 sequence: T1 sequence (Q8SWR3 1-435)

[3] = molecular target: T4, SPR of Drosophila pseudoobscura (Drosophila pseudoobscura); test: cell-based or functional assay
T4 chain: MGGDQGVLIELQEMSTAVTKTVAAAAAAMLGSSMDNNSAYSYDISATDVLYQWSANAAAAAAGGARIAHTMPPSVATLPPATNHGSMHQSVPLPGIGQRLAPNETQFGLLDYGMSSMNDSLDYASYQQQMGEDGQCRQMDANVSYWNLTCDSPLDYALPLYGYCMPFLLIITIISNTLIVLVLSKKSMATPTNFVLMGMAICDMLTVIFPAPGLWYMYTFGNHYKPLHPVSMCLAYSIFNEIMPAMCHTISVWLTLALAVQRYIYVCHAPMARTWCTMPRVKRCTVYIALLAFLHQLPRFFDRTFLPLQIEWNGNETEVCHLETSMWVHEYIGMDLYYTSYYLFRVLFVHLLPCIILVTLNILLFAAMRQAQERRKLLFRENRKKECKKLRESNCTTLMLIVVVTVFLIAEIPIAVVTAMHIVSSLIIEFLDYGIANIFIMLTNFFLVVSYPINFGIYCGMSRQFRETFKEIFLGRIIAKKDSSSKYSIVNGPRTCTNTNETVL

SPR of Aedes aegypti = molecular target: T5, SPR of Aedes aegypti (Aedes aegypti); test: cell-based or functional assay
T5 chain: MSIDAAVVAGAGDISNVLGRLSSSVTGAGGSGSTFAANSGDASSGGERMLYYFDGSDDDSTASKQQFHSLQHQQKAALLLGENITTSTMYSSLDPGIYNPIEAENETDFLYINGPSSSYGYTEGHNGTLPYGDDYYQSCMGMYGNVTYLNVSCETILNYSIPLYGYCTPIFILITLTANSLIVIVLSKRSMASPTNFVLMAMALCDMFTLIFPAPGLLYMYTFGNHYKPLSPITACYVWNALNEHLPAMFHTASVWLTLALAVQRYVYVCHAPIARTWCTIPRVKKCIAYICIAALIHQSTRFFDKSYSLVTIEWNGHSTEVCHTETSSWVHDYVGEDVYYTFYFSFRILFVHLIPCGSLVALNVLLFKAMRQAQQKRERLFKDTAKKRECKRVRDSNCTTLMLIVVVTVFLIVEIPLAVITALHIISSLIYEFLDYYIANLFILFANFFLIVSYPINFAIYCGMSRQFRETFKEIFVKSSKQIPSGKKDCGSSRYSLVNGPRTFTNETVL

SPR of Bombyx mori = molecular target: T6, SPR of Bombyx mori (Bombyx mori); test: cell-based or functional assay
T6 chain: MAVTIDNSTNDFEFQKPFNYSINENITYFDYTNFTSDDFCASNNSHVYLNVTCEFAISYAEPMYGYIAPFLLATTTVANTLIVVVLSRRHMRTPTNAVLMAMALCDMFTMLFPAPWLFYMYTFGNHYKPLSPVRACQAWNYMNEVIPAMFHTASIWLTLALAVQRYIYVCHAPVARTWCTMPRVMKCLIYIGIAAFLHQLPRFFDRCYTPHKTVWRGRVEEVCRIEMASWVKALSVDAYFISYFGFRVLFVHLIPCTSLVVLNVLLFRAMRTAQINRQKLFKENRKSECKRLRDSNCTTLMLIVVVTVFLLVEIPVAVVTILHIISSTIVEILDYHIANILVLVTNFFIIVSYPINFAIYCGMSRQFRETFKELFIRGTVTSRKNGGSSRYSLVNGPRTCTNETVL

CC[C@H](C)[C@H](NC(=O)[C@H](Cc1c[nH]c2ccccc12)NC(=O)[C@H](CCC(=O)O)NC(=O)[C@@H](NC(=O)[C@H](CC(=O)O)NC(=O)[C@H](CC(N)=O)NC(=O)[C@H](CCCNC(=N)N)NC(=O)[C@H](CC(=O)O)NC(=O)[C@@H]1CCC(=O)N1)[C@@H](C)O)C(=O)N[C@@H](CCC(N)=O)C(=O)N[C@@H](CO)C(=O)N[C@@H](CCC(N)=O)C(=O)N[C@@H](CCCCN)C(=O)N[C@@H](CC(=O)O)C(=O)N[C@@H](CCCNC(=N)N)C(=O)N[C@@H](CCC(=O)O)C(=O)N[C@@H](CCCCN)C(=O)N[C@@H](Cc1c[nH]c2ccccc12)C(=O)N[C@H]1CSSC[C@@H](C(=O)O)NC(=O)[C@H](CCCNC(=N)N)NC(=O)CNC(=O)CNC(=O)[C@H](CC(C)C)NC(=O)[C@H](Cc2ccc(O)cc2)NC(=O)[C@@H]2CCCN2C(=O)CNC(=O)[C@H](CC(C)C)NC(=O)[C@H](CC(N)=O)NC(=O)[C@H](CC(C)C)NC(=O)[C@H](CCCNC(=N)N)NC1=O [DUP99B] ([pGlu]DRNDTEWIQSQKDREKWCRLNLGPYLGGRC-OH; disulfide 19-31)
post-mating responses [1]: can induce the same post-mating responses as SP | response of receptor to peptide (D. pseudoobscura SPR): lower sensitivity | response of receptor to peptide (B. mori SPR): lower sensitivity | response of receptor to peptide (A. aegypti SPR): lower sensitivity

CC[C@H](C)[C@H](NC(=O)[C@@H]1C[C@@H](O)CN1C(=O)[C@H](Cc1ccccc1)NC(=O)[C@H](CCCCN)NC(=O)[C@@H](NC(=O)[C@@H]1C[C@@H](O)CN1C(=O)[C@H](CCCCN)NC(=O)[C@H](CCCNC(=N)N)NC(=O)[C@H](CC(N)=O)NC(=O)[C@H](Cc1c[nH]c2ccccc12)NC(=O)[C@@H]1CCCN1C(=O)[C@H](Cc1c[nH]c2ccccc12)NC(=O)[C@H](CCC(=O)O)NC(=O)[C@@H](N)Cc1c[nH]c2ccccc12)[C@@H](C)O)C(=O)N1C[C@H](O)C[C@H]1C(=O)N[C@@H](CO)C(=O)N1C[C@H](O)C[C@H]1C(=O)N[C@@H](CC(N)=O)C(=O)N1C[C@H](O)C[C@H]1C(=O)N[C@@H](CCCNC(=N)N)C(=O)N[C@@H](CC(=O)O)C(=O)N[C@@H](CCCCN)C(=O)N[C@@H](Cc1c[nH]c2ccccc12)C(=O)N[C@H]1CSSC[C@@H](C(=O)O)NC(=O)[C@H](CCCNC(=N)N)NC(=O)CNC(=O)CNC(=O)[C@H](Cc2c[nH]c3ccccc23)NC(=O)[C@H](C)NC(=O)[C@@H]2CCCN2C(=O)CNC(=O)[C@H](CC(C)C)NC(=O)[C@H](CC(N)=O)NC(=O)[C@H](CC(C)C)NC(=O)[C@H](CCCNC(=N)N)NC1=O [SP]
EC50 (D. pseudoobscura SPR): 0.0043 µM | post-mating responses (Helicoverpa armigera): can induce post-mating responses | Ca^2+ responses (CG16752; cotransfected chimeric G protein Gαqi): robust Ca^2+ responses | Ca^2+ responses (CG16752; cotransfected chimeric G protein Gαqo): robust Ca^2+ responses | Ca^2+ responses (CG16752; cotransfected chimeric G protein Gαqs): not Gαqs | luminescence response (CG16752; no additional G protein (endogenous Gαq/11), concentrations as high as 10µM): very weak response | sensitivity to peptide ligand (CG2114): not to SP | EC50 (B. mori SPR): 0.063 µM | sensitivity to peptide ligand (CG8784): not to SP | receptivity to naive males (virgin females; Df(1)Exel6234 homozygous virgins, 12pmol SP injected): remaine receptive | receptivity to naive males (virgin females; wild-type virgins, 12pmol SP injected into haemolymph): unreceptive | EC50 (A. aegypti SPR): 0.167 µM

pQLQSNGEPAYRVRTPRLa ([pGlu]LQSNGEPAYRVRTPRL-NH2; SMILES CC(C)C[C@H](NC(=O)[C@H](CCCNC(=N)N)NC(=O)[C@@H]1CCCN1C(=O)[C@@H](NC(=O)[C@H](CCCNC(=N)N)NC(=O)[C@@H](NC(=O)[C@H](CCCNC(=N)N)NC(=O)[C@H](Cc1ccc(O)cc1)NC(=O)[C@H](C)NC(=O)[C@@H]1CCCN1C(=O)[C@H](CCC(=O)O)NC(=O)CNC(=O)[C@H](CC(N)=O)NC(=O)[C@H](CO)NC(=O)[C@H](CCC(N)=O)NC(=O)[C@H](CC(C)C)NC(=O)[C@@H]1CCC(=O)N1)C(C)C)[C@@H](C)O)C(N)=O) [hugin-γ, ligand of CG8784]
activation of receptor by peptide ligand (CG16752; 10µM peptide, co-transfected with Gαqi): Neither of these peptides activates | sensitivity to peptide ligand (CG8784): confer sensitivity

B1: synthetic sex peptide (SP) of Drosophila melanogaster (peptide)
peptide: WEWPWNRKPTKFPIPSPNPRDKWCRLNLGPAWGGRC
modifications: disulfide 24-36 (inferred); also: hydroxyproline at some P residues, places not given here
EC50, dose-response of luminescence in CHO cells expressing CG16752, aequorin and Gαqi [2]: 0.0013 µM | EC50, dose-response of luminescence in CHO cells expressing the SPR, aequorin and Gαqi [3]: 0.0043 µM | EC50, dose-response of luminescence in CHO cells expressing the SPR, aequorin and Gαqi (SPR of Aedes aegypti): 0.167 µM | EC50, dose-response of luminescence in CHO cells expressing the SPR, aequorin and Gαqi (SPR of Bombyx mori): 0.063 µM

[pGlu]DRNDTEWIQSQKDREKWCRLNLGPYLGGRC (disulfide 19-31 (inferred)) [synthetic DUP99B]
EC50, dose-response of luminescence in CHO cells expressing CG16752, aequorin and Gαqi [2]: 0.0073 µM
